Measurements from article PMC5564600 (Oncotarget, 2017).

Experiments:
Assay in all cases: biochemical
Type in all cases: binding
panel of 442 kinases [1] = molecular target: T1, panel of 442 kinases (Homo sapiens, UniProt P10721, D816V); settings: kinase KIT(D816V), second of two lines so named (r207); for remaining activity at 1 µM: read-out: % of control at 1 µM
T1 construct: purchased Ambit Biosciences (scanMAXX KINOMEscan)

panel of 442 kinases [2] = molecular target: T2, panel of 442 kinases (Homo sapiens, UniProt P29320); settings: EPHA3; for remaining activity at 1 µM: read-out: % of control at 1 µM
T2 construct: purchased Ambit Biosciences (scanMAXX KINOMEscan)
T2 sequence (P29320 21-983): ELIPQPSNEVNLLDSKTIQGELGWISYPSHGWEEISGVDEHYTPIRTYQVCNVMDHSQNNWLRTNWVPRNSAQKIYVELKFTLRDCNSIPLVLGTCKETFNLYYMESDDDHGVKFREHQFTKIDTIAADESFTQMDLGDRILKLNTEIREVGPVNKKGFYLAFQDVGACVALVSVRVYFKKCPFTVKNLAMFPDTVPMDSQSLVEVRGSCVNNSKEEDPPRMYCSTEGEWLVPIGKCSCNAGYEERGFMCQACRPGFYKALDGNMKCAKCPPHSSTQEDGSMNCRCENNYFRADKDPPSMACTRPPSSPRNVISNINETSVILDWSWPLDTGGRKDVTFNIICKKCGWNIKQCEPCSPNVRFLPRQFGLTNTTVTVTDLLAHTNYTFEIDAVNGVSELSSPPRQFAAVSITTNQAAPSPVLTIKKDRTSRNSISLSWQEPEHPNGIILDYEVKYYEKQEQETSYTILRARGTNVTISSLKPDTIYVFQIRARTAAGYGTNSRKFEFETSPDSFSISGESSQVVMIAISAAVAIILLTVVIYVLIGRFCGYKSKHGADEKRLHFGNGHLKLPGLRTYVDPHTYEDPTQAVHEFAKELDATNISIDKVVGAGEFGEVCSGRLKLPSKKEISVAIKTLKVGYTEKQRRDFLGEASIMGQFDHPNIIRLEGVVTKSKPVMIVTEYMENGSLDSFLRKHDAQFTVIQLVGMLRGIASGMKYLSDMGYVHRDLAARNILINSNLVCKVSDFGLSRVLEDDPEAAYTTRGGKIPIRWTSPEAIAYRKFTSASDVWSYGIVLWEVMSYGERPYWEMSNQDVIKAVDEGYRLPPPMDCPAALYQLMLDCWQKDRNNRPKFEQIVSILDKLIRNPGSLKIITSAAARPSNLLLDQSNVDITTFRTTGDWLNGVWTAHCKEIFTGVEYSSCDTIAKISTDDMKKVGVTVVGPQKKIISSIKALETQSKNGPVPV

panel of 442 kinases [3] = molecular target: T3, panel of 442 kinases (Homo sapiens, UniProt P30291); settings: kinase WEE1; for remaining activity at 1 µM: read-out: WEE1 (% of control at 1 µM)
T3 construct: purchased Ambit Biosciences (scanMAXX KINOMEscan)
T3 sequence (P30291 whole entry): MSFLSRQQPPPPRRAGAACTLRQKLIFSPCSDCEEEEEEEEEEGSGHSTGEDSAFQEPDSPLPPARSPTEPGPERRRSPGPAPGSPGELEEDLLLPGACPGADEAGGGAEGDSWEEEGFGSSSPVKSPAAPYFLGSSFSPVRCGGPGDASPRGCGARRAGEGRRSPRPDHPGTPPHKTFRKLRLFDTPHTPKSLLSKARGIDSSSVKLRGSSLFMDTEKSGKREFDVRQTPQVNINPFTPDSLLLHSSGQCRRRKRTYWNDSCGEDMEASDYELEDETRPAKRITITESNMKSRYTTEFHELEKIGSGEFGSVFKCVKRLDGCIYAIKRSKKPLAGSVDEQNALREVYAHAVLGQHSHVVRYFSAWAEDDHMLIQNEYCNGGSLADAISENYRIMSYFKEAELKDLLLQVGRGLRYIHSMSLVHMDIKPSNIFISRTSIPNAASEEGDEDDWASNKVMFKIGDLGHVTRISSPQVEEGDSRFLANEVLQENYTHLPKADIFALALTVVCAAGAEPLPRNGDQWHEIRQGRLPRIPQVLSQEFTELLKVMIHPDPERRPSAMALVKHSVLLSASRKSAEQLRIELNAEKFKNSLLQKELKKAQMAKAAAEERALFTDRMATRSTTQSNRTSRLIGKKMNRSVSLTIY

panel of 442 kinases [4] = molecular target: T4, panel of 442 kinases (Homo sapiens, UniProt P78356); settings: kinase PIP5K2B; for remaining activity at 1 µM: read-out: % of control at 1 µM
T4 construct: purchased Ambit Biosciences (scanMAXX KINOMEscan)
T4 sequence (P78356 1-416): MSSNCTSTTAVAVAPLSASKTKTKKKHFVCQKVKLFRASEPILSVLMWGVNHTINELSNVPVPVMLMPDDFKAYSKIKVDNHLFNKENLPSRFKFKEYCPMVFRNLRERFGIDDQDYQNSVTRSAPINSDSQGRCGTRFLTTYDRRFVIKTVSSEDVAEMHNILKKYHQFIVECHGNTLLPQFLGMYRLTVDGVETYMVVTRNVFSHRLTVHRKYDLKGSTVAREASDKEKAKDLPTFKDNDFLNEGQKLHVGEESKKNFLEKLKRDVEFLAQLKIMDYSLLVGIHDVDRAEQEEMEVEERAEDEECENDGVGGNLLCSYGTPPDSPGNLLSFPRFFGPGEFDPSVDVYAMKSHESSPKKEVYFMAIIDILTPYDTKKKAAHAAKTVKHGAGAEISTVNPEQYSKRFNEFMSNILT

panel of 442 kinases [5] = molecular target: T5, panel of 442 kinases (Homo sapiens, UniProt Q13188); settings: kinase MST2; for remaining activity at 1 µM: read-out: % of control at 1 µM
T5 construct: purchased Ambit Biosciences (scanMAXX KINOMEscan)
T5 sequence (Q13188 1-491): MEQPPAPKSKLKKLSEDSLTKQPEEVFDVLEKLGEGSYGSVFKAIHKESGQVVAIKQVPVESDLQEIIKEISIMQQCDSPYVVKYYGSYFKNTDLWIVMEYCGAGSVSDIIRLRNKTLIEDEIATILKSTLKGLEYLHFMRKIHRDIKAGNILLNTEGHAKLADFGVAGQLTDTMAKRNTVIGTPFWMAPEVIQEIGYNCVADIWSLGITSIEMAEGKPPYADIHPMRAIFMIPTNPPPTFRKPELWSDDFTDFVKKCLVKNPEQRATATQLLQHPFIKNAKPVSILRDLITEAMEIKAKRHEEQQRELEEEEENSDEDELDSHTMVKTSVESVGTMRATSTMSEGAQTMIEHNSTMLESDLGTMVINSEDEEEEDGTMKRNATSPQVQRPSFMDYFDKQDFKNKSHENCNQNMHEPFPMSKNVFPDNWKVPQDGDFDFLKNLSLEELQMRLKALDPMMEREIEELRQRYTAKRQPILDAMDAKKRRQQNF

panel of 442 kinases [6] = molecular target: T6, panel of 442 kinases (Homo sapiens, UniProt Q15569); settings: kinase TESK1; for remaining activity at 1 µM: read-out: TESK1 (% of control at 1 µM)
T6 construct: purchased Ambit Biosciences (scanMAXX KINOMEscan)
T6 sequence (Q15569 whole entry): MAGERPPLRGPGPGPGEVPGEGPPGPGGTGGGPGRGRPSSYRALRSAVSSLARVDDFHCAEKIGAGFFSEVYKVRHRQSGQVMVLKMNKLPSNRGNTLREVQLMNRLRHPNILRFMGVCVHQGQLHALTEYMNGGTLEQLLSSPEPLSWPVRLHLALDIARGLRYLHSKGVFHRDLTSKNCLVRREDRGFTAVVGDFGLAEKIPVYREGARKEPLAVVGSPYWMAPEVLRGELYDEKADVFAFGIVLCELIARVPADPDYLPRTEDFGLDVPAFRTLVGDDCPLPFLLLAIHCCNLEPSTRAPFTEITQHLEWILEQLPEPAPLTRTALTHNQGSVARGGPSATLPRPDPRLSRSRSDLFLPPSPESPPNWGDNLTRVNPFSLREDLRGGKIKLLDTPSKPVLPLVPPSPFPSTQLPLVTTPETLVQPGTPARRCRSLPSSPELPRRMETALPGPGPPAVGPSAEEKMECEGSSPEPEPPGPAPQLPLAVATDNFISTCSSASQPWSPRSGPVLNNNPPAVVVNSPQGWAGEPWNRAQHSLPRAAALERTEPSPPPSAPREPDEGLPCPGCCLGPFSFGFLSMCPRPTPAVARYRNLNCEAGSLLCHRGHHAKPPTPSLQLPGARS

panel of 442 kinases [7] = molecular target: T7, panel of 442 kinases (Homo sapiens, UniProt Q16513); settings: kinase PKN2; for remaining activity at 1 µM: read-out: PKN2 (% of control at 1 µM)
T7 construct: purchased Ambit Biosciences (scanMAXX KINOMEscan)
T7 sequence (Q16513 whole entry): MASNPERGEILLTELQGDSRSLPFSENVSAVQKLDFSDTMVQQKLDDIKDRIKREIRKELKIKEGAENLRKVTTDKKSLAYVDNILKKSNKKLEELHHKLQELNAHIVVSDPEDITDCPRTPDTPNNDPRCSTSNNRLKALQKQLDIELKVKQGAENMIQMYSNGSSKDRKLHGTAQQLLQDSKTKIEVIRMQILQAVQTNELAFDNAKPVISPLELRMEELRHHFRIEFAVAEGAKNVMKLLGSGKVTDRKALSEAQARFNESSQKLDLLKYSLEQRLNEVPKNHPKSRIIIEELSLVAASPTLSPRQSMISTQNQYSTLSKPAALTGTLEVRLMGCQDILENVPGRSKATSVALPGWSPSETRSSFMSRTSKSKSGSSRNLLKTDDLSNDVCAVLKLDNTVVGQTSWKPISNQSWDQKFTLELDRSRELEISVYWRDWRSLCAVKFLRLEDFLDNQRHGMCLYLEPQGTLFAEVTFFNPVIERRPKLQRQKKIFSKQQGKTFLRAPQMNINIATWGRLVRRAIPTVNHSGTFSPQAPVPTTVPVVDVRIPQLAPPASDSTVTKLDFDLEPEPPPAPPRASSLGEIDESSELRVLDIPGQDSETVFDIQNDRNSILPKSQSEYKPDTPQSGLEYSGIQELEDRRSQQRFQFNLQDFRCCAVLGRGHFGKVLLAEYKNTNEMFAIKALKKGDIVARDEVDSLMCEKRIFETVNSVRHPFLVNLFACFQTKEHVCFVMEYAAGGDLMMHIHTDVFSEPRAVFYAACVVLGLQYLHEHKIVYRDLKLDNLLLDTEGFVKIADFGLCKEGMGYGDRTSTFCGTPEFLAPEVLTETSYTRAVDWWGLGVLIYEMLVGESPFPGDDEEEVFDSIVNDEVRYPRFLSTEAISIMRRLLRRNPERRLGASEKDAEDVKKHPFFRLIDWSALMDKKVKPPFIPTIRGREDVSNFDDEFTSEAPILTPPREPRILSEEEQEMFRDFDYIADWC

[8] = 10 µM, read-out: % of control at 10 µM

T1 sequence (P10721 26-976 D816V): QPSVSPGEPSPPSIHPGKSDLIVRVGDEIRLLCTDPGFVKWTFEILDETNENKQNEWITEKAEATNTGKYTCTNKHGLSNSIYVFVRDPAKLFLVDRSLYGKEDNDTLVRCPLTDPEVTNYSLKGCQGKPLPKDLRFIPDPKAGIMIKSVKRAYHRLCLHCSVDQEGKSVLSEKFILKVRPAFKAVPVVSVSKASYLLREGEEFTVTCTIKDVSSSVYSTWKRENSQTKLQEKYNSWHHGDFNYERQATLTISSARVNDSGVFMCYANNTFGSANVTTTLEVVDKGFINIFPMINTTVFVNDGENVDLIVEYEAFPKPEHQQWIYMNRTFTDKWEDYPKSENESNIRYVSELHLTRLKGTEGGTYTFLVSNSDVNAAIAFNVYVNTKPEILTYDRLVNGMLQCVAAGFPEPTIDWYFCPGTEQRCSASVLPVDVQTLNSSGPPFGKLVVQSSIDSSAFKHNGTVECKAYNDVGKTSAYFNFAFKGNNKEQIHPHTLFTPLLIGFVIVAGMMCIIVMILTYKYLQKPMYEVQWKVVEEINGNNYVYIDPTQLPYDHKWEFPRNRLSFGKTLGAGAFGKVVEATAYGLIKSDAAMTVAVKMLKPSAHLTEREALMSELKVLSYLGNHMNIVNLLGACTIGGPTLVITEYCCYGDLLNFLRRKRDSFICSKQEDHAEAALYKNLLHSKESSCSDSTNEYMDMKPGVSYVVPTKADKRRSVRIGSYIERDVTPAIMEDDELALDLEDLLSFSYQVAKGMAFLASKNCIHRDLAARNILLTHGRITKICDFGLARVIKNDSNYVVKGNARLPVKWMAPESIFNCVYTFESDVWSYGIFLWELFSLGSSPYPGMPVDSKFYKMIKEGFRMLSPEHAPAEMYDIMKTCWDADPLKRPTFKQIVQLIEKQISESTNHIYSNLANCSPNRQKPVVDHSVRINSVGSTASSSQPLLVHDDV

SMILES | remaining activity at 1 µM (panel of 442 kinases [1]) [%] | remaining activity at 10 µM (panel of 442 kinases [1]; [8]) [%] | remaining activity at 1 µM (panel of 442 kinases [2]) [%] | remaining activity at 10 µM (panel of 442 kinases [2]; [8]) [%] | remaining activity at 1 µM (panel of 442 kinases [3]) [%] | remaining activity at 10 µM (panel of 442 kinases [3]; 10 µM, read-out: WEE1 (% of control at 10 µM)) [%] | remaining activity at 1 µM (panel of 442 kinases [4]) [%] | remaining activity at 10 µM (panel of 442 kinases [4]; [8]) [%] | remaining activity at 1 µM (panel of 442 kinases [5]) [%] | remaining activity at 10 µM (panel of 442 kinases [5]; [8]) [%] | remaining activity at 1 µM (panel of 442 kinases [6]) [%] | remaining activity at 10 µM (panel of 442 kinases [6]; 10 µM, read-out: TESK1 (% of control at 10 µM)) [%] | remaining activity at 1 µM (panel of 442 kinases [7]) [%] | remaining activity at 10 µM (panel of 442 kinases [7]; 10 µM, read-out: PKN2 (% of control at 10 µM)) [%]
Nc1cc(C(F)(F)F)c(-c2cc(N3CCOCC3)nc(N3CCOCC3)n2)cn1 [Buparlisib] | 100 | 100 | 96 | 100 | 100 | 100 | 84 | 100 | 89 | 84 | 92 | 100 | 83 | 100
Cn1c(=O)n(-c2ccc(C(C)(C)C#N)cc2)c2c3cc(-c4cnc5ccccc5c4)ccc3ncc21 [Dactolisib, 2-methyl-2-[4-(3-methyl-2-oxo-8-quinolin-3-yl-2,3-dihydroimidazo[4,5-c]quinolin-1-yl)-phenyl] propionitrile] | 59 |  | 63 |  | 100 |  | 100 |  | 43 |  | 100 |  | 92 | 
COc1ncc(-c2ccc3nccc(-c4ccnnc4)c3c2)cc1NS(=O)(=O)c1ccc(F)cc1F [Omipalisib] | 86 |  | 100 |  | 100 |  | 100 |  | 53 |  | 73 |  | 100 | 
FC(F)c1nc2ccccc2n1-c1nc(N2CCOCC2)nc(N2CCOCC2)n1 [ZSTK474, 2-(difluoromethyl)-1-[4,6-di(4-morpholinyl)-1,3,5-triazin-2-yl]-1H-benzimidazole] | 100 |  | 93 |  | 100 |  | 100 |  | 76 |  | 96 |  | 100 | 
